Assay results reported in PubChem BioAssay AID180 (DTP/NCI, 2004).
Where “and” joins values, the source holds several entries; their conditions need not be identical. Equal values may be shown once.

System: BDF1 mice, Adenocarcinoma 755 s.c., tumor weight T/C
Experiment: NCI In Vivo Anticancer Drug Screen. Data for tumor model Adenocarcinoma 755 (subcutaneous) in B6D2F1 (BDF1) mice
Details: endpoint: mean tumor weight, higher = larger tumour
In short: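 Compound activity was tested in mice carrying transplanted tumors. Survival or tumor size was measured, and each value is the treated-group measurement divided by that of the vehicle-treated control group (T/C).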

[1] = dose: 3.0 mg/kg/injection, schedule: Q01DX011 (ip), vehicle: methylcellulose (MC)
[2] = dose: 15.0 mg/kg/injection, schedule: Q01DX011 (ip), vehicle: methylcellulose (MC)
[3] = dose: 100.0 mg/kg/injection, schedule: Q01DX011 (ip), vehicle: methylcellulose (MC)

## COc1ccc(-c2c(C)c(C(=O)O)nc(-c3ccc4c(O)c(OC)c5c(c4n3)=NC(C)(C)N=5)c2N)c(O)c1OC
dose: 2.5 mg/kg/injection, schedule: Q01DX011 (ip), vehicle: water
  T/C: 26 % of control
dose: 2.5 mg/kg/injection, schedule: Q01DX011 (oral), vehicle: water
  T/C: 6 % of control
dose: 2.5 mg/kg/injection, schedule: Q## X006 (ip), vehicle: water
  T/C: 59 % of control
dose: 2.5 mg/kg/injection, schedule: Q## X006 (oral), vehicle: water
  T/C: 43 % of control
dose: 2.5 mg/kg/injection, schedule: Q#A X022 (ip), vehicle: water
  T/C: 51 % of control
dose: 5.0 mg/kg/injection, schedule: Q01DX005 (iv), vehicle: water
  T/C: 58 % of control
dose: 5.0 mg/kg/injection, schedule: Q01DX006 (ip), vehicle: water
  T/C: 64 % of control
dose: 5.0 mg/kg/injection, schedule: Q01DX011 (im), vehicle: water
  T/C: 64 % of control
dose: 5.0 mg/kg/injection, schedule: Q01DX011 (ip), vehicle: water
  T/C: 5 % of control
dose: 5.0 mg/kg/injection, schedule: Q01DX011 (oral), vehicle: water
  T/C: 2 % of control
dose: 5.0 mg/kg/injection, schedule: Q01DX011 (sc), vehicle: water
  T/C: 13 % of control
dose: 5.0 mg/kg/injection, schedule: Q## X006 (ip), vehicle: water
  T/C: 57 % of control
dose: 5.0 mg/kg/injection, schedule: Q## X006 (oral), vehicle: water
  T/C: 79 % of control
dose: 5.0 mg/kg/injection, schedule: Q#A X022 (ip), vehicle: water
  T/C: 21 % of control
dose: 7.5 mg/kg/injection, schedule: Q01DX006 (ip), vehicle: water
  T/C: 63 % of control
dose: 7.5 mg/kg/injection, schedule: Q#A X022 (ip), vehicle: water
  T/C: 9 % of control
dose: 8.0 mg/kg/injection, schedule: Q01DX011 (ip), vehicle: water
  T/C: 50 % of control
dose: 10.0 mg/kg/injection, schedule: Q01DX005 (iv), vehicle: water
  T/C: 26 % of control
dose: 10.0 mg/kg/injection, schedule: Q01DX006 (ip), vehicle: water
  T/C: 28 % of control
dose: 10.0 mg/kg/injection, schedule: Q01DX011 (im), vehicle: water
  T/C: 13 % of control
dose: 10.0 mg/kg/injection, schedule: Q01DX011 (sc), vehicle: water
  T/C: 15 % of control
dose: 10.0 mg/kg/injection, schedule: Q## X006 (ip), vehicle: water
  T/C: 19 % of control
dose: 10.0 mg/kg/injection, schedule: Q## X006 (oral), vehicle: water
  T/C: 44 % of control
dose: 12.0 mg/kg/injection, schedule: Q03DX004 (ip), vehicle: water
  T/C: 62 % of control
dose: 13.0 mg/kg/injection, schedule: Q01DX011 (ip), vehicle: water
  T/C: 10 % of control
dose: 15.0 mg/kg/injection, schedule: Q01DX005 (iv), vehicle: water
  T/C: 6 % of control
dose: 15.0 mg/kg/injection, schedule: Q01DX011 (im), vehicle: water
  T/C: 10 % of control
dose: 15.0 mg/kg/injection, schedule: Q01DX011 (sc), vehicle: water
  T/C: 4 % of control
dose: 18.0 mg/kg/injection, schedule: Q03DX004 (ip), vehicle: water
  T/C: 38 % of control
dose: 20.0 mg/kg/injection, schedule: Q01DX011 (ip), vehicle: water
  T/C: 6 % of control
dose: 20.0 mg/kg/injection, schedule: Q## X006 (ip), vehicle: water
  T/C: 39 % of control
dose: 20.0 mg/kg/injection, schedule: Q## X006 (oral), vehicle: water
  T/C: 20 % of control
dose: 22.0 mg/kg/injection, schedule: Q07DX002 (ip), vehicle: water
  T/C: 48 % of control
dose: 22.5 mg/kg/injection, schedule: Q01DX005 (iv), vehicle: water
  T/C: 2 % of control
dose: 22.5 mg/kg/injection, schedule: Q01DX011 (im), vehicle: water
  T/C: 1 % of control
dose: 27.0 mg/kg/injection, schedule: Q03DX004 (ip), vehicle: water
  T/C: 4 % of control
dose: 34.0 mg/kg/injection, schedule: Q01DX001 (ip), vehicle: water
  T/C: 45 % of control and 50 % of control
dose: 35.0 mg/kg/injection, schedule: Q07DX002 (ip), vehicle: water
  T/C: 55 % of control
dose: 44.0 mg/kg/injection, schedule: Q01DX001 (ip), vehicle: water
  T/C: 52 % of control and 57 % of control
dose: 50.0 mg/kg/injection, schedule: Q07DX002 (ip), vehicle: water
  T/C: 8 % of control
dose: 67.0 mg/kg/injection, schedule: Q01DX001 (ip), vehicle: water
  T/C: 18 % of control

## COc1ccc2c(c1)/C(=C/CCN(C)C)c1ccccc1S2
dose: 1.0 mg/kg/injection, schedule: Q01DX011 (ip), vehicle: methylcellulose (MC)
  T/C: 87 % of control
dose: 2.0 mg/kg/injection, schedule: Q01DX011 (ip), vehicle: methylcellulose (MC)
  T/C: 87 % of control
[1]
  T/C: 27 % of control
dose: 4.0 mg/kg/injection, schedule: Q01DX011 (ip), vehicle: carboxymethylcellulose (CMC)
  T/C: 93 % of control
dose: 7.0 mg/kg/injection, schedule: Q01DX011 (ip), vehicle: carboxymethylcellulose (CMC)
  T/C: 29 % of control
dose: 7.0 mg/kg/injection, schedule: Q01DX011 (ip), vehicle: methylcellulose (MC)
  T/C: 42 % of control
dose: 15.0 mg/kg/injection, schedule: Q01DX011 (ip), vehicle: carboxymethylcellulose (CMC)
  T/C: 67 % of control
[2]
  T/C: 39 % of control
dose: 30.0 mg/kg/injection, schedule: Q01DX011 (ip), vehicle: carboxymethylcellulose (CMC)
  T/C: 47 % of control

## CCC(C)Cn1cnc2c(Sc3c([N+](=O)[O-])ncn3C)nc(N)nc21 (configuration not stated)
dose: 11.0 mg/kg/injection, schedule: Q01DX011 (ip), vehicle: methylcellulose (MC)
  T/C: 58 % of control
dose: 33.0 mg/kg/injection, schedule: Q01DX011 (ip), vehicle: methylcellulose (MC)
  T/C: 10 % of control
[3]
  T/C: 1 % of control

## Nc1nc(=S)c2ncn(C3OC(COC(=O)c4ccc([N+](=O)[O-])cc4)C(OC(=O)c4ccc([N+](=O)[O-])cc4)C3OC(=O)c3ccc([N+](=O)[O-])cc3)c2[nH]1 (configuration not stated)
dose: 12.5 mg/kg/injection, schedule: Q01DX011 (ip), vehicle: carboxymethylcellulose (CMC)
  T/C: 34 % of control
dose: 25.0 mg/kg/injection, schedule: Q01DX011 (ip), vehicle: carboxymethylcellulose (CMC)
  T/C: 20 % of control

## Nc1nc(NCc2ccccc2)cc(=O)[nH]1
dose: 55.0 mg/kg/injection, schedule: Q01DX011 (ip), vehicle: methylcellulose (MC)
  T/C: 66 % of control
dose: 165.0 mg/kg/injection, schedule: Q01DX011 (ip), vehicle: methylcellulose (MC)
  T/C: 49 % of control

## C1CN1P1(N2CC2)=NP(N2CC2)(N2CC2)=NP(N2CC2)(N2CC2)=NP(N2CC2)(N2CC2)=N1
dose: 0.4 mg/kg/injection, schedule: Q01DX011 (ip), vehicle: carboxymethylcellulose (CMC)
  T/C: 48 % of control
dose: 0.4 mg/kg/injection, schedule: Q02DX011 (ip), vehicle: carboxymethylcellulose (CMC)
  T/C: 96 % of control
dose: 0.8 mg/kg/injection, schedule: Q01DX011 (ip), vehicle: carboxymethylcellulose (CMC)
  T/C: 22 % of control
dose: 0.8 mg/kg/injection, schedule: Q02DX011 (ip), vehicle: carboxymethylcellulose (CMC)
  T/C: 54 % of control
dose: 1.5 mg/kg/injection, schedule: Q01DX011 (ip), vehicle: methylcellulose (MC)
  T/C: 45 % of control
dose: 1.5 mg/kg/injection, schedule: Q02DX006 (ip), vehicle: carboxymethylcellulose (CMC)
  T/C: 50 % of control
dose: 1.6 mg/kg/injection, schedule: Q01DX011 (ip), vehicle: carboxymethylcellulose (CMC)
  T/C: 6 % of control
dose: 1.6 mg/kg/injection, schedule: Q02DX011 (ip), vehicle: carboxymethylcellulose (CMC)
  T/C: 31 % of control
[1]
  T/C: 13 % of control
dose: 3.0 mg/kg/injection, schedule: Q02DX006 (ip), vehicle: carboxymethylcellulose (CMC)
  T/C: 10 % of control
dose: 3.2 mg/kg/injection, schedule: Q02DX011 (ip), vehicle: carboxymethylcellulose (CMC)
  T/C: 1 % of control
dose: 6.0 mg/kg/injection, schedule: Q02DX006 (ip), vehicle: carboxymethylcellulose (CMC)
  T/C: 1 % of control

## O=C(Nc1cccc(C2=NCCN2)c1)c1ccc(N=Nc2ccc(C(=O)Nc3cccc(C4=NCCN4)c3)cc2)cc1
[2]
  T/C: 81 % of control
dose: 30.0 mg/kg/injection, schedule: Q01DX011 (ip), vehicle: methylcellulose (MC)
  T/C: 70 % of control
dose: 60.0 mg/kg/injection, schedule: Q01DX011 (ip), vehicle: methylcellulose (MC)
  T/C: 68 % of control
dose: 120.0 mg/kg/injection, schedule: Q01DX011 (ip), vehicle: methylcellulose (MC)
  T/C: 70 % of control

## CC(C)CC(Nc1ncnc2nc[nH]c12)C(=O)O (configuration not stated)
dose: 12.0 mg/kg/injection, schedule: Q01DX011 (ip), vehicle: methylcellulose (MC)
  T/C: 110 % of control
dose: 25.0 mg/kg/injection, schedule: Q01DX011 (ip), vehicle: methylcellulose (MC)
  T/C: 96 % of control
dose: 50.0 mg/kg/injection, schedule: Q01DX011 (ip), vehicle: methylcellulose (MC)
  T/C: 101 % of control
[3]
  T/C: 60 % of control
